# Laboratory results taken from US11771692B2, “N-hydroxyethyl didehydroazapodophyllotoxins as GBP1 inhibitors and methods of overcoming treatment resistance in cancer” (The Board of Trustees of the Leland Stanford Junior …, priority 2018, dated 2023).
# “Also recorded” adds a separate entry of the source.
# Experiments:
# HCT116 = assay: MTT cytotoxicity assay, HCT116; assay type: cell-based; details: Homo sapiens, HCT-116, Colorectal
# Description: (§1) It was observed that SU093 was highly cytotoxic for all cell lines tested with IC50 values in the nanomolar range.
# DU145 = assay: MTT cytotoxicity assay, DU145; assay type: cell-based; details: Homo sapiens, DU-145, Prostate
# Description: as §1
# A549 = assay: MTT cytotoxicity assay, A549; assay type: cell-based; details: Homo sapiens, Lung
# Description: as §1
# SKOV3 = assay: MTT cytotoxicity assay, SKOV3; assay type: cell-based; details: Homo sapiens, SK-OV-3; SKOV3 ovarian cancer cell line
# Description: (§2) FIG. 3, panels A-E. FIG. 3, panel A illustrates the effects of SU093 on survival of human normal HEK293 cell line and ovarian cancer cell lines OVCAR8 & SKOV3 cells via MTT assay. FIG. 3, panel B illustrates the effect of SU093 on GBP1 and PIM1 expression in OVCAR8 cells. […] FIG. 3, panel D illustrates quantification of overexpression and knockdown of GBP1 gene in stably transfected OVCAR8 cells. FIG. 3, panel E illustrates cytotoxicity of SU093 as evaluated in GBP1-OV, GBP1-WT and GBP1-KD OVCAR8 via MTT assay.
# (§3) Furthermore, OVCAR8 cells with overexpressed (OV) and knockdown (KD) of GBP1 gene were created (FIG. 3, panel D) and cell viability experiments were performed on GBP1-WT (wild-type), GBP1-OV and GBP1-KD OVCAR8 cells at different doses of SU093.
# OVCAR8 cells [1] = assay: Colony formation (clonogenic) assay in OVCAR8 cells; assay type: cell-based
# [2] = system: GBP1-OV and GBP1-KD OVCAR8 cells; assay: MTT cell viability in GBP1-WT, GBP1-OV and GBP1-KD OVCAR8 cells; assay type: cell-based
# Description: as §2, §3
# OVCAR8 cells [3] = assay: Cell cycle analysis and cell cycle/cell death regulators in OVCAR8 cells; assay type: cell-based
# Description: FIG. 4, panel A illustrates a histogram of cell cycle distribution of propidium iodide (PI)-stained cells. […] FIG. 4, panel C illustrates the effect of SU093 on cell cycle and cell death regulators analyzed by immunostaining. FIG. 4, panel D illustrates mitochondria stained with MitoTracker Red CMXRos and visualized by confocal microscopy indicating mitochondrial dysfunction in OVCAR8 cells. FIG. 4, panel E illustrates the effect of SU093 on active mitochondrial mass in OVCAR8 cells.
# as §3
# It has been previously established that GBP1 expression has a definitive role in the resistance towards radiation therapy and taxane-based chemotherapy. The GBP1 inhibitor SU093 was tested in combination with radiation and paclitaxel (a well known taxane-based chemotherapeutic drug) for its potential in overcoming radiation therapy and taxane resistance. […] A cell cycle analysis experiment for radiation was performed with SU093 and combination treatment (FIG. 5, panel B). […] One of the mechanisms through which a drug can sensitize the effect of radiation is its ability to block G2/M phase of the cell cycle (Leonard, C. E.; Chan, D. C.; Chou, T. C.; Kumar, R.; Bunn, P. A., Paclitaxel enhances in vitro radiosensitivity of squamous carcinoma cell lines of the head and neck. Cancer Research 1996, 56 (22), 5198-5204). […]
# GBP1 = assay: Immunoblotting and cycloheximide chase of GBP1 protein in SCC-90 HNC cells; assay type: cell-based
# Description: (§4) The potential for GBP1 inhibition and radiosensitzation in head and neck cancer cells was also investigated.
# SCC-90 cells = assay: Clonogenic radiosensitization assay in SCC-90 cells; assay type: cell-based; details: SCC-90, SU093 50 nM then radiation
# Description: as §4
# ID-8 tumor xenograft = assay: Ovarian ID-8 tumor xenograft in C57BL6 mice; assay type: in vivo
# Description: An immunocompetent syngeneic mouse model was used to evaluate in vivo antitumor effect of SU093 and SU056 (also referred to herein as Compound (I)) for ovarian cancer. C57BL6 female mice (n=5/group) were subcutaneously injected in the right flank with 5×10^6 ID-8 cells mixed with matrigel. From the day following xenograft implantation, mice were monitored regularly for tumor growth and once the tumors reached approximately 100 mm^3, the mice were randomly divided into three groups and respective treatments were given.
# Group I (vehicle control): 100 μl of 10% PEG300 (w/v) in saline;
# Group II: mice treated with SU093 (20 mg/kg); and
# Group III: mice treated with SU056 (20 mg/kg).
# Doses were administered intraperitoneally (IP) for 7 days/week for 42 days and the mice were sacrificed on day 43. Tumor sizes were measured twice weekly using digital caliper and tumor volume was calculated by the formula: 0.5236 L1 (L2)^2, where L1 is long diameter, and L2 is short diameter.
# SCC-90 tumor xenograft = assay: Head and neck SCC-90 tumor xenograft in nude mice; assay type: in vivo; details: SCC-90, nude mice
# Procedure: An immunodeficient nude mice model was also used to study the in vivo potential of SU093 and SU056 for head and neck cancer. Nude mice (n=3/group) were subcutaneously injected in the right flank with 5×10^6 SCC-90 cells mixed with matrigel and observed regularly until the tumor size reached about 200 mm^3. The treatment regime with drugs including dose, formulation and route of delivery was similar to ovarian cancer study discussed above. Doses of SU093 and SU056 were administered daily until 35 days and mice were sacrificed thereafter. […] At the end of 35 days, calculated tumor volume/mouse was 860.33±21.78 mm^3, 694.67±14.64 mm^3, and 435.00±10.81 mm^3 for control, SU093 and SU056 treatment groups, respectively. This equates to a 20% and 50% reduction in tumor volume for SU093 and SU056 treatment groups, respectively. A decrease in tumor weight of about 21% (P value not significant) and 54% (P<0.002) was also observed for the SU093 and SU56 treatment groups, respectively.
# [4] = ID-8, 20 mg/kg IP daily, 42 days, vs control
smiles,measurement,setting,value
COc1ccc2c(c1)N(CCO)C1=C(C(=O)OC1)C2c1ccccc1 (stereo not drawn) [SU093],IC50,HCT116,1.24 nM
same,IC50,DU145,1.12 nM
same,IC50,A549,2.48 nM
same,IC50,SKOV3,2.68 nM
same,colony formation / clonogenic potential,OVCAR8 cells [1],dose-dependent inhibition of clonogenic potential; also recorded: dose-dependent inhibition of colony formation
same,cytotoxicity compared to GBP1-WT,[2]; GBP1-KD OVCAR8 cells,enhanced cytotoxicity
same,cytotoxicity compared to GBP1-WT,[2]; GBP1-OV OVCAR8 cells,reduced cytotoxicity
same,cell cycle distribution,"OVCAR8 cells [3]; OVCAR8, SU093 alone",G1 phase arrest; also recorded: progression from G1 to S phase was markedly inhibited
same,"cell cycle distribution, combination of SU093 and radiation","OVCAR8 cells [3]; OVCAR8, combination with radiation",G2/M phase arrest leading to apoptosis; also recorded: G2/M phase arrest leading to apoptotic cell death
same,cell cycle and cell death regulators,"OVCAR8 cells [3]; OVCAR8, cyclin D1, CDK2, Bax",reduction in cyclin D1 and CDK2 levels and elevation of the cell death regulator Bax
same,"GBP1 protein degradation, cyclohexamide chase",GBP1; SCC-90,degradation of GBP1 protein and reduction of its half-life
same,GBP1 protein expression,"GBP1; SCC-90, western blot, 24 h",inhibition in GBP1 expression; also recorded: inhibited GBP1 protein expression
same,"radiation sensitizing effect, clonogenic assay",SCC-90 cells,radiosensitization effect; also recorded: significant radiation sensitizing effect
same,gross sign of toxicity (body weight and diet consumption),"ID-8 tumor xenograft; 20 mg/kg IP daily, 42 days",did not show any gross sign of toxicity
same,"liver toxicity parameters (AST, ALT, Alkaline phosphatase)","ID-8 tumor xenograft; ELISA, end of 42 days, vs control",No significant difference
same,reduction in tumor volume,ID-8 tumor xenograft; [4],37.5%
same,tumor weight decreased,ID-8 tumor xenograft; [4],39.65%
same,tumor volume/mouse,"ID-8 tumor xenograft; ID-8, 20 mg/kg IP daily, end of 6 weeks",318.81±26.09 mm^3
same,tumor volume/mouse,"SCC-90 tumor xenograft; 20 mg/kg IP daily, end of 35 days",694.67±14.64 mm^3
same,decrease in tumor weight,"SCC-90 tumor xenograft; 35 days, vs control",about 21%
same,reduction in tumor volume,"SCC-90 tumor xenograft; 35 days, vs control",20%
